Laboratory results as given in publication PMC6891328, “Design, Synthesis and Biological Evaluation of Diosgenin-Amino Acid Derivatives with Dual Functions of Neuroprotection and Angiogenesis” (Molecules, 2019).
Where “and” joins values, the source holds several entries; their conditions need not be identical. Equal values may be shown once.

Tested on: SH-SY5Y cells
Test: Morphological observation of TBHP-damaged SH-SY5Y cells by Giemsa and DAPI staining
Format: cell-based, human
Conditions: TBHP-damaged SH-SY5Y, 10, 20, 40 μM
Description: Afterwards, the medium containing compound DG-15 were added to the cultures for 24 h and the concentration range of the examined compounds was 10, 20 and 40 µM. Then 0.1 mL TBHP was used to damage cells and the plate was cultured for further 24 h. Removing the culture medium, washing twice with PBS and fixing cells with 2 mL methanol for 2 min and 1 mL paraformaldehyde for 15 min respectively and washed with fresh PBS again. Giemsa solution or DAPI was added to stain the fixed cells for 2 min and protected from light. Finally, the cells ware washed with water and were observed under inverted fluorescent microscope.

Structure (SMILES) | morphological change, DAPI staining | morphological change, Giemsa staining
CCC(C)C(N)C(=O)OC1CCC2(C)C(=CCC3C2CCC2(C)C3CC3OC4(CCC(C)CO4)C(C)C32)C1 [DG-15, 3β-(L-isoleucine)-diosgenin] | the number of SH-SY5Y cells was increasingly larger | the typical signs for apoptosis were reduced

Tested on: chorioallantoic membrane
Test: Angiogenesis in chorioallantoic membrane (CAM) model
Format: in vivo, chicken
Conditions: 1 mg/mL on gelatin sponge, new vessels inner diameter < 100 μm
Description: The CAM was examined as a predictive model for the angiogenic activity studies of compounds DG-15. The wide end of the fresh fertilized egg was placed upward in an incubator at 37 °C with a relative humidity of 60%. All the eggs were turned every two hours to prevent from sticking to each other. Compound DG-15 was dissolved with acetone at a concentration of 1 mg/mL and 4 mg/mL and then 5 µL solution was transferred to gelatin sponge using a pipette respectively. The sham treatment group was added to the same volume of saline. Disinfected with UV lamp for 30 min. After 7 days, the broader said of eggs was disinfected with 70% alcohol, then a 30-mm-diameter window was carefully opened in the shell to reduce the chamber pressure before removed the upper shell membrane with tweezers. In addition, the non-fertilized oocytes and unhealthy developed embryos were thrown away. Then the gelatin sponge was embedded into the allantoic membrane and the window was sealed with adhesive tape, with the eggs being returned to the incubator. The eggs were then incubated 3 days after administration, fixed with methanol-acetone (1:1) for 10 min and repeated four times. […] The vascular growth was analyzed with a dissecting microscope and counted by software of Image Professional Plus 5.0 software (Media Cybernetics, Inc, MD, USA)

Structure (SMILES) | increase of number of blood vessels [%]
CCC(C)C(N)C(=O)OC1CCC2(C)C(=CCC3C2CCC2(C)C3CC3OC4(CCC(C)CO4)C(C)C32)C1 [DG-15, 3β-(L-isoleucine)-diosgenin] | 60.61

Same assay, conditions: 4 mg/mL on gelatin sponge, new vessels inner diameter < 100 μm

Structure (SMILES) | increase of number of blood vessels [%]
CCC(C)C(N)C(=O)OC1CCC2(C)C(=CCC3C2CCC2(C)C3CC3OC4(CCC(C)CO4)C(C)C32)C1 [DG-15, 3β-(L-isoleucine)-diosgenin] | 80.30

Tested on: SH-SY5Y cells
Test: not given
Conditions: SH-SY5Y, compared with compounds with neutral amino acids

Structure (SMILES) | cytotoxicity seen in neuroprotective activity evaluation (in words)
CC1CCC2(OC1)OC1CC3C4CC=C5CC(OC(=O)C(N)CCCCN)CCC5(C)C4CCC3(C)C1C2C [DG-18, 3β-(L-lysine)-diosgenin] | higher cytotoxicity

Same assay, conditions: read-out: EC50 (neuroprotection); SH-SY5Y damaged by TBHP, 24 h, MTT, n = 3

Structure (SMILES) | EC50
CC1CCC2(OC1)OC1CC3C4CC=C5CC(OC(=O)C(C)N)CCC5(C)C4CCC3(C)C1C2C [DG-11, 3β-(L-alanine)-diosgenin] | > 50 µM
CC1CCC2(OC1)OC1CC3C4CC=C5CC(OC(=O)C(CCCCNC(=O)OCc6ccccc6)NC(=O)OCc6ccccc6)CCC5(C)C4CCC3(C)C1C2C [DG-9, 3β-(N-Cbz-L-lysine)-diosgenin] | 36.2 ± 8.67 µM
CC(C)CC(N)C(=O)OC1CCC2(C)C(=CCC3C2CCC2(C)C3CC3OC4(CCC(C)CO4)C(C)C32)C1 [DG-14, 3β-(L-leucine)-diosgenin] | 32.6 ± 0.97 µM
CC1CCC2(OC1)OC1CC3C4CC=C5CC(OC(=O)C(N)Cc6ccccc6)CCC5(C)C4CCC3(C)C1C2C [DG-16, 3β-(L-phenylalanine)-diosgenin] | 11.4 µM and 11.2 µM
C[C@@H]1CC[C@@]2(OC1)O[C@H]1C[C@H]3[C@@H]4CC=C5C[C@@H](O)CC[C@]5(C)[C@H]4CC[C@]3(C)[C@H]1[C@@H]2C [DG, diosgenin] | > 50 µM
CNCC(=O)OC1CCC2(C)C(=CCC3C2CCC2(C)C3CC3OC4(CCC(C)CO4)C(C)C32)C1 (stereo not drawn) [DG-12, 3β-(sarcosine)-diosgenin] | > 50 µM
CC1=NN(c2ccccc2)C(=O)C1 [Edaravone, edaravone, reference compound] | 21.6 ± 3.04 µM
CC1CCC2(OC1)OC1CC3C4CC=C5CC(OC(=O)CN(C)C(=O)OC(C)(C)C)CCC5(C)C4CCC3(C)C1C2C (stereo not drawn) [DG-3, 3β-(N-Boc-sarcosine)-diosgenin] | 15.2 ± 0.96 µM
CC(C)CC(NC(=O)OC(C)(C)C)C(=O)OC1CCC2(C)C(=CCC3C2CCC2(C)C3CC3OC4(CCC(C)CO4)C(C)C32)C1 [DG-5, 3β-(N-Boc-L-leucine)-diosgenin] | 9.51 ± 1.79 µM
CCC(C)C(N)C(=O)OC1CCC2(C)C(=CCC3C2CCC2(C)C3CC3OC4(CCC(C)CO4)C(C)C32)C1 [DG-15, 3β-(L-isoleucine)-diosgenin] | 6.86 ± 0.69 µM
CC1CCC2(OC1)OC1CC3C4CC=C5CC(OC(=O)C(N)C(C)C)CCC5(C)C4CCC3(C)C1C2C [DG-17, 3β-(L-valine)-diosgenin] | > 50 µM
CC1CCC2(OC1)OC1CC3C4CC=C5CC(OC(=O)C6CCCN6)CCC5(C)C4CCC3(C)C1C2C [DG-13, 3β-(L-proline)-diosgenin] | 7.22 ± 1.58 µM
CCC(C)C(NC(=O)OC(C)(C)C)C(=O)OC1CCC2(C)C(=CCC3C2CCC2(C)C3CC3OC4(CCC(C)CO4)C(C)C32)C1 [DG-6, 3β-(N-Boc-L-isoleucine)-diosgenin] | 18.5 ± 1.87 µM
CC1CCC2(OC1)OC1CC3C4CC=C5CC(OC(=O)C(NC(=O)OCc6ccccc6)C(C)C)CCC5(C)C4CCC3(C)C1C2C [DG-8, 3β-(N-Cbz-L-valine)-diosgenin] | 38.1 ± 6.68 µM
CC1CCC2(OC1)OC1CC3C4CC=C5CC(OC(=O)CN)CCC5(C)C4CCC3(C)C1C2C (stereo not drawn) [DG-10, 3β-(glycine)-diosgenin] | > 50 µM
CC1CCC2(OC1)OC1CC3C4CC=C5CC(OC(=O)C6CCCN6C(=O)OC(C)(C)C)CCC5(C)C4CCC3(C)C1C2C [DG-4, 3β-(N-Boc-L-proline)-diosgenin] | 23.8 ± 6.83 µM
CC1CCC2(OC1)OC1CC3C4CC=C5CC(OC(=O)CNC(=O)OC(C)(C)C)CCC5(C)C4CCC3(C)C1C2C (stereo not drawn) [DG-1, 3β-(N-Boc-glycine)-diosgenin] | > 50 µM
CC1CCC2(OC1)OC1CC3C4CC=C5CC(OC(=O)C(Cc6ccccc6)NC(=O)OC(C)(C)C)CCC5(C)C4CCC3(C)C1C2C [DG-7, 3β-(N-Boc-L-phenylalanine)-diosgenin] | > 50 µM
CC1CCC2(OC1)OC1CC3C4CC=C5CC(OC(=O)C(N)CCCCN)CCC5(C)C4CCC3(C)C1C2C [DG-18, 3β-(L-lysine)-diosgenin] | > 50 µM

Same assay, conditions: read-out: EC50 (neuroprotection); SH-SY5Y damaged by TBHP, 24 h, MTT, n = 3; listed as diosgenin

Structure (SMILES) | EC50 [µM]
C[C@@H]1CC[C@@]2(OC1)O[C@H]1C[C@H]3[C@@H]4CC=C5C[C@@H](O)CC[C@]5(C)[C@H]4CC[C@]3(C)[C@H]1[C@@H]2C [DG, diosgenin] | > 40

Tested on: not given
Test: not given
Conditions: not given

Structure (SMILES) | melting point [°C]
CC1CCC2(OC1)OC1CC3C4CC=C5CC(OC(=O)C(C)N)CCC5(C)C4CCC3(C)C1C2C [DG-11, 3β-(L-alanine)-diosgenin] | 219.1
CC1CCC2(OC1)OC1CC3C4CC=C5CC(OC(=O)C(CCCCNC(=O)OCc6ccccc6)NC(=O)OCc6ccccc6)CCC5(C)C4CCC3(C)C1C2C [DG-9, 3β-(N-Cbz-L-lysine)-diosgenin] | 135.8
CC(C)CC(N)C(=O)OC1CCC2(C)C(=CCC3C2CCC2(C)C3CC3OC4(CCC(C)CO4)C(C)C32)C1 [DG-14, 3β-(L-leucine)-diosgenin] | 154.4
CNCC(=O)OC1CCC2(C)C(=CCC3C2CCC2(C)C3CC3OC4(CCC(C)CO4)C(C)C32)C1 (stereo not drawn) [DG-12, 3β-(sarcosine)-diosgenin] | 176
CCC(C)C(N)C(=O)OC1CCC2(C)C(=CCC3C2CCC2(C)C3CC3OC4(CCC(C)CO4)C(C)C32)C1 [DG-15, 3β-(L-isoleucine)-diosgenin] | 147.1
CC1CCC2(OC1)OC1CC3C4CC=C5CC(OC(=O)C(N)C(C)C)CCC5(C)C4CCC3(C)C1C2C [DG-17, 3β-(L-valine)-diosgenin] | 139.1
CC1CCC2(OC1)OC1CC3C4CC=C5CC(OC(=O)C(C)NC(=O)OC(C)(C)C)CCC5(C)C4CCC3(C)C1C2C [DG-2, 3β-(N-Boc-L-alanine)-diosgenin] | 218.9
CC1CCC2(OC1)OC1CC3C4CC=C5CC(OC(=O)C(NC(=O)OCc6ccccc6)C(C)C)CCC5(C)C4CCC3(C)C1C2C [DG-8, 3β-(N-Cbz-L-valine)-diosgenin] | 158.4
CC1CCC2(OC1)OC1CC3C4CC=C5CC(OC(=O)CN)CCC5(C)C4CCC3(C)C1C2C (stereo not drawn) [DG-10, 3β-(glycine)-diosgenin] | 110.8
CC1CCC2(OC1)OC1CC3C4CC=C5CC(OC(=O)C6CCCN6C(=O)OC(C)(C)C)CCC5(C)C4CCC3(C)C1C2C [DG-4, 3β-(N-Boc-L-proline)-diosgenin] | 183.4
CC1CCC2(OC1)OC1CC3C4CC=C5CC(OC(=O)CNC(=O)OC(C)(C)C)CCC5(C)C4CCC3(C)C1C2C (stereo not drawn) [DG-1, 3β-(N-Boc-glycine)-diosgenin] | 218.7
CC1CCC2(OC1)OC1CC3C4CC=C5CC(OC(=O)C(Cc6ccccc6)NC(=O)OC(C)(C)C)CCC5(C)C4CCC3(C)C1C2C [DG-7, 3β-(N-Boc-L-phenylalanine)-diosgenin] | 163.4
CC1CCC2(OC1)OC1CC3C4CC=C5CC(OC(=O)C(N)CCCCN)CCC5(C)C4CCC3(C)C1C2C [DG-18, 3β-(L-lysine)-diosgenin] | 189.4

Tested on: H9c2 cells
Test: Biosafety (cytotoxicity) evaluation on H9c2 cells (MTT)
Format: cell-based, rat
Conditions: H9c2, 25 μM, MTT
Description: (§1) Compounds DG-13 and DG-15 dissolved in DMSO were added to each well with required concentrations (3.125, 6.25, 12.5, 25, 50 µM). Then the control group were treated with the same volume of medium. The non-administered group were not treated (no cells and no medium). Then the sterile plates were further incubated for 4 h, following MTT addition. After 4 h, supernatant liquor was removed into the waste and all of the wells were then placed into the fresh DMSO (0.15 mL). The absorbance was measured using BIORAD 550 spectrophotometer with the emission wavelengths of 490 nm. Each data was measured three times in parallel survival fraction of cells, calculated by the equation: [OD490 (Drug group) − OD490 (non-administered group)]/[OD490 (Control group) − OD490 (non-administered group)] ×100%.

Structure (SMILES) | survival rate [%]
CC1CCC2(OC1)OC1CC3C4CC=C5CC(OC(=O)C6CCCN6)CCC5(C)C4CCC3(C)C1C2C [DG-13, 3β-(L-proline)-diosgenin] | 12

Same assay, conditions: H9c2, 3.125-50 μM, MTT

Structure (SMILES) | cytotoxicity (in words)
C[C@@H]1CC[C@@]2(OC1)O[C@H]1C[C@H]3[C@@H]4CC=C5C[C@@H](O)CC[C@]5(C)[C@H]4CC[C@]3(C)[C@H]1[C@@H]2C [DG, diosgenin] | toxic under all treated groups
CCC(C)C(N)C(=O)OC1CCC2(C)C(=CCC3C2CCC2(C)C3CC3OC4(CCC(C)CO4)C(C)C32)C1 [DG-15, 3β-(L-isoleucine)-diosgenin] | no cytotoxicity
CC1CCC2(OC1)OC1CC3C4CC=C5CC(OC(=O)C6CCCN6)CCC5(C)C4CCC3(C)C1C2C [DG-13, 3β-(L-proline)-diosgenin] | significantly enhanced compared with diosgenin

Same assay, conditions: H9c2, concentrations below 25 μM

Structure (SMILES) | inhibitory effect on cells
CCC(C)C(N)C(=O)OC1CCC2(C)C(=CCC3C2CCC2(C)C3CC3OC4(CCC(C)CO4)C(C)C32)C1 [DG-15, 3β-(L-isoleucine)-diosgenin] | no inhibitory effect

Tested on: not listed separately
Test: as above
Format: cell-based, rat
Conditions: rat, H9c2 cells; H9c2, 50 μM, MTT; read-out: cell viability
Description: as §1

Structure (SMILES) | viability at 50 µM [%]
C[C@@H]1CC[C@@]2(OC1)O[C@H]1C[C@H]3[C@@H]4CC=C5C[C@@H](O)CC[C@]5(C)[C@H]4CC[C@]3(C)[C@H]1[C@@H]2C [DG, diosgenin] | ~60
